The results in this text go back to ChEMBL document CHEMBL4038286, “Synthesis of camphecene derivatives using click chemistry methodology and study of their antiviral activity” (Bioorg Med Chem Lett, 2017).

Some results are limits rather than exact numbers.

A short description of data set [1]: Selectivity index, ratio of CTD50 for MDCK cells to ED50 for Influenza A virus (A/Puerto Rico/8/34(H1N1)). It is filed as toxicity. The settings on record: dog, read-out: Selectivity Index.
Data set [2] is described as follows: Cytotoxicity against MDCK cells assessed as cell death by MTT assay. It is filed as cell-based, Canis lupus familiaris. The settings on record: dog, read-out: CTD50.

Turning to `CC1(C)[C@@H]2CC[C@@]1(C)/C(=N\CCOCc1cn(CC/N=C3\C[C@H]4CC[C@]3(C)C4(C)C)nn1)C2`, the selectivity ratio in data set [1] amounted to 1. The CC50 in data set [2] came out at 117 µM.

On to `CCOP(=O)(CCCCn1cc(COCC/N=C2\C[C@H]3CC[C@]2(C)C3(C)C)nn1)OCC`, for which, in data set [1], the selectivity ratio is above 2. In data set [2], the CC50 was above 641 µM.

As for `CC1(C)[C@@H]2CC[C@@]1(C)/C(=N/CCn1cc(CCO)nn1)C2`, in data set [1], the selectivity ratio is above 19. The CC50 in data set [2] is above 1030 µM.

Turning to `CC1(C)[C@@H]2CC[C@@]1(C)/C(=N/CCn1cc(CO)nn1)C2`, in data set [1], the selectivity ratio is 2. In data set [2], the CC50 was above 1090 µM.

As for `CC1(C)[C@@H]2CC[C@@]1(C)/C(=N/CCOCc1cn(CCO)nn1)C2`, the selectivity ratio in data set [1] is above 19. For the same compound, the CC50 in data set [2] was above 938 µM.

In the case of `CC(C)(C)OC(=O)Cn1cc(COCC/N=C2\C[C@H]3CC[C@]2(C)C3(C)C)nn1`, the selectivity ratio in data set [1] is 8. Further, the CC50 in data set [2] amounted to 204 µM.

On to `CCCCc1cn(CC/N=C2\C[C@H]3CC[C@]2(C)C3(C)C)nn1`, for which the selectivity ratio in data set [1] came to 5. The CC50 in data set [2] was found to be 303 µM.

For the compound `CNCc1cn(CC/N=C2\C[C@H]3CC[C@]2(C)C3(C)C)nn1`, the selectivity ratio in data set [1] is below 2. For the same compound, the CC50 in data set [2] is 195 µM.

As to `NC12CC3CC(CC(C3)C1)C2` [AMANTADINE], the selectivity ratio in data set [1] was found to be 4. Besides, the CC50 in data set [2] was 266 µM.

For the compound `CC1(C)[C@@H]2CC[C@@]1(C)/C(=N/CCN=[N+]=[N-])C2`, the selectivity ratio in data set [1] is above 3. Besides, the CC50 in data set [2] is above 1360 µM.

As for `CCOP(=O)(OCC)C(Cc1cn(CC/N=C2\C[C@H]3CC[C@]2(C)C3(C)C)nn1)P(=O)(OCC)OCC`, the selectivity ratio in data set [1] worked out at 2. In addition, the CC50 in data set [2] was found to be 92 µM.

On to `CC(N)[C@@H]1C[C@H]2CC[C@]1(C)C2` (stereo not given in full), for which the selectivity ratio in data set [1] was determined as 6. Besides, in data set [2], the CC50 worked out at 1110 µM.

With `CC1(C)[C@@H]2CC[C@@]1(C)/C(=N/CCn1cc(CCN3CCOCC3)nn1)C2`, the selectivity ratio in data set [1] was above 18. Also, the CC50 in data set [2] is above 836 µM.

Consider `CC1(C)[C@@H]2CC[C@@]1(C)/C(=N/CCn1cc([Si](C)(C)C)nn1)C2`, for which the selectivity ratio in data set [1] was below 1. In data set [2], the CC50 came out at 32 µM.

On to `CC(C)(O)Cc1cn(CC/N=C2\C[C@H]3CC[C@]2(C)C3(C)C)nn1`, for which, in data set [1], the selectivity ratio was above 31. In addition, the CC50 in data set [2] was above 987 µM.

In the case of `CCOC(=O)C(C)(Cc1cn(CC/N=C2\C[C@H]3CC[C@]2(C)C3(C)C)nn1)P(=O)(OCC)OCC` (stereo not given in full), the selectivity ratio in data set [1] was 2. Further, the CC50 in data set [2] is above 555 µM.

For `CC(N)C12CC3CC(CC(C3)C1)C2` (stereo not given) [RIMANTADINE], the selectivity ratio in data set [1] came to 5. Also, the CC50 in data set [2] was 344 µM.

Consider `COCCNCCc1cn(CC/N=C2\C[C@H]3CC[C@]2(C)C3(C)C)nn1`, for which, in data set [1], the selectivity ratio amounted to 34. The CC50 in data set [2] was determined as 865 µM.

With `C#CCOCC/N=C1\C[C@H]2CC[C@]1(C)C2(C)C`, the selectivity ratio in data set [1] was 2. Moreover, the CC50 in data set [2] is 971 µM.

Consider `CC1(C)[C@@H]2CC[C@@]1(C)/C(=N/CCOCc1cn(-c3ccccc3)nn1)C2`, for which the selectivity ratio in data set [1] turned out to be 2. The CC50 in data set [2] came out at 138 µM.
